The assay addresses T1, Tyrosinase (Homo sapiens) (UniProt P14679).
T1 sequence (whole entry): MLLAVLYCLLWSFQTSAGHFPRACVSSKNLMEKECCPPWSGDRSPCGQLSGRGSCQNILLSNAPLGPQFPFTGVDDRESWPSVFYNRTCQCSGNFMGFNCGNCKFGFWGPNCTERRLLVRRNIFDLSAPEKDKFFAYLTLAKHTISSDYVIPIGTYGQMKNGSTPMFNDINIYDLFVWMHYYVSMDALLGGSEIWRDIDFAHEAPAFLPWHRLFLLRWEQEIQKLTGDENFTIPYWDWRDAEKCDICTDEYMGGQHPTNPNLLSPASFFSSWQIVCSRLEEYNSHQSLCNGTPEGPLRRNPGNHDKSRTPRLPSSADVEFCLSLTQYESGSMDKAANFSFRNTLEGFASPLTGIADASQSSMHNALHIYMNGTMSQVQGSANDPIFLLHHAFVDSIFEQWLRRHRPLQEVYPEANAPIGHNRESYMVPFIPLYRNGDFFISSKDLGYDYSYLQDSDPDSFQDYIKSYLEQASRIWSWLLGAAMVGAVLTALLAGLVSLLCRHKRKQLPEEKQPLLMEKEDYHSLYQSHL
The assay can be described thus: Inhibition of tyrosinase-mediated formation of melanin from tyrosine at 100 uM relative to control.

SMILES strings stand for the structures.

The term inhibition denotes the percentage by which the read-out fell short of the control.

In the case of `CC[C@H](C)[C@@H]1NC(=O)[C@H](Cc2ccc(O)cc2)N(C)C(=O)[C@H]([C@H](C)O)N2C(=O)[C@H](CC[C@H]2O)NC(=O)[C@H](CC(C)C)NC(=O)[C@@H](NC(=O)[C@H](CCC(N)=O)NC(=O)[C@H](CCc2ccc(O)cc2)NC(=O)[C@H](O)CO)[C@@H](C)OC1=O`, the inhibition is 55%.
